Test system: human foreskin primary keratinocytes
Assay: Keratinocyte scratch assay with 4-AP, NGF and NGF-antibody
Format: cell-based
Conditions: at 12 hours
Method: Keratinocytes (7×10^4 cells/well) with KC medium were seeded on collagen-I pre-coated 96-well ImageLock microplate for 6 hours. For the drug treatment cells were pretreated with 4-AP prior to coating for 16-18 hours. Next, the wound scratch was created using IncuCyte automated system. After scratches the cells washed with PBS and the respective cells medium was added with individual 1 mM of 4-AP and 200 ng/ml of NGF (MyBioSource, Inc., Catlog No. MBS7114974) in keratinocytes medium and combination of 1 mM of 4-AP & 200 ng/mL NGF with or without 10 μg/ml of NGF-antibody (ThermoFisher Scientific, Catlog No. MA5-32067). The plate was incubated in Incucyte automated imaging system, wound healing and cells migration imaged for every hour until 24 hour and analyzed for percent of closure as described above procedure.

Substance: NGF: nerve growth factor (NGF), MyBioSource, used at 200 ng/ml in keratinocyte scratch assay
- scratch closure (56% in control cultures, 1 mM 4-AP, 200 ng/ml NGF): 75%
- scratch closure with NGF-neutralizing antibody (plus 10 μg/ml NGF-antibody): 67%

From patent US20240024216A1, “METHODS AND MATERIALS FOR TREATING HAIR LOSS” (The Penn State Research Foundation, priority 2021, published 2024)
